Data: US10570122B2, “Compounds with anti-tumoral activity” (AB Science, priority 2015, dated 2020)

Key:
HEP2 = assay: CellTiter-Blue cell-based survival/proliferation assay, HEP2; conditions: Homo sapiens, HEp-2; HEP2 head & neck tumor cell line, 48 h
Description: (§1) Cell-Based Proliferation Screening of Compounds
(§2) CellTiter-Blue cell-based survival/proliferation assay (Promega G8080) was performed on tumor cell lines. A total of 1·10^4 cells/well/50 μl were seeded in a 96-wells plate. Treatment was initiated by addition of a 2× drug solution of 1/10 serial dilutions ranging from 0 to 10 μM. Cells were grown for 48 h at 37° C. and then incubated with 10 μl/well of Promega CellTiter-Bleue reagent for 4 h at 37° C. The amount of resorufin dye formed was quantified by its fluorescence emission at 590 nm using a scanning multiwell spectrophotometer (OPTIMA, BMG labtech, France). A blank well without cells was used as a background control for the spectrophotometer.

CALU6 = assay: CellTiter-Blue cell-based survival/proliferation assay, CALU6; conditions: Homo sapiens, Calu-6; CALU6 lung tumor cell line, 48 h
Description: as §1, §2

PANC1 = assay: CellTiter-Blue cell-based survival/proliferation assay, PANC1; conditions: Homo sapiens, PANC-1; PANC_1 pancreas tumor cell line, 48 h
Description: as §1, §2

BT20 = assay: CellTiter-Blue cell-based survival/proliferation assay, BT20; conditions: Homo sapiens, BT-20; BT20 breast tumor cell line, 48 h
Description: as §1, §2

OPM2 = assay: CellTiter-Blue cell-based survival/proliferation assay, OPM2; conditions: Homo sapiens, OPM-2, Myeloma cell line OPM2, 48 h, read-out: Anti-tumoral activity (measured IC50) OPM2
Description: as §1, §2

H1299 = assay: CellTiter-Blue cell-based survival/proliferation assay, H1299; conditions: Homo sapiens, NCI-H1299; H1299 lung tumor cell line, 48 h
Description: as §1, §2

ACHN = assay: CellTiter-Blue cell-based survival/proliferation assay, ACHN; conditions: Homo sapiens; ACHN kidney tumor cell line, 48 h
Description: as §1, §2

AGS = assay: CellTiter-Blue cell-based survival/proliferation assay, AGS; conditions: Homo sapiens; AGS stomach tumor cell line, 48 h
Description: as §1, §2

HCT116 = assay: CellTiter-Blue cell-based survival/proliferation assay, HCT116; conditions: Homo sapiens, HCT-116; HCT116 colorectal tumor cell line, 48 h
Description: as §1, §2

A549 = assay: CellTiter-Blue cell-based survival/proliferation assay, A549; conditions: Homo sapiens; A549 lung tumor cell line, 48 h
Description: as §1, §2

SW579 = assay: CellTiter-Blue cell-based survival/proliferation assay, SW579; conditions: Homo sapiens; SW579 head & neck tumor cell line, 48 h
Description: as §1, §2

HEPG2 = assay: CellTiter-Blue cell-based survival/proliferation assay, HEPG2; conditions: Homo sapiens; HEPG2 liver tumor cell line, 48 h
Description: as §1, §2

[1] = system: panel of about 34 human tumor cell lines; assay: Cell-based proliferation screening on panel of tumor cell lines; conditions: solid tumor cell line, cell line unknown, 48 h, read-out: IC50, solid tumor cell line of column 6 (last section of Table 3)
Description: Compounds of formula (I) were tested against a panel of about 34 human tumor cell lines representing 17 cancer type, namely leukemia (represented by 1 cell line), lymphoma (4 cell lines), myeloma (1 cell line), colorectal (2 cell lines), head and neck (3 cell lines), lung (3 cell lines), melanoma (2 cell lines), pancreas (2 cell lines), prostate (2 cell lines), ovary (2 cell lines) breast (2 cell lines), kidney (2 cell lines), stomach (2 cell lines), liver (2 cell lines), glioblastoma (2 cell lines), osteosarcoma (1 cell line), Ewing Sarcoma (1 cell line).
as §1, §2

BXPC3 = assay: CellTiter-Blue cell-based survival/proliferation assay, BXPC3; conditions: Homo sapiens, BXPC-3; BXPC3 pancreas tumor cell line, 48 h
Description: as §1, §2

DLD1 = assay: CellTiter-Blue cell-based survival/proliferation assay, DLD1; conditions: Homo sapiens, DLD-1; DLD_1 colorectal tumor cell line, 48 h
Description: as §1, §2

A498 = assay: CellTiter-Blue cell-based survival/proliferation assay, A498; conditions: Homo sapiens; A498 kidney tumor cell line, 48 h
Description: as §1, §2

TOV112D = assay: CellTiter-Blue cell-based survival/proliferation assay, TOV112D; conditions: Homo sapiens; TOV112D ovary tumor cell line, 48 h
Description: as §1, §2

DU145 = assay: CellTiter-Blue cell-based survival/proliferation assay, DU145; conditions: Homo sapiens, DU-145; DU145 prostate tumor cell line, 48 h
Description: as §1, §2

CLS354 = assay: CellTiter-Blue cell-based survival/proliferation assay, CLS354; conditions: Homo sapiens, CLS-354; CLS354_4 head & neck tumor cell line, 48 h
Description: as §1, §2

PC3 = assay: CellTiter-Blue cell-based survival/proliferation assay, PC3; conditions: Homo sapiens, PC-3; PC3 prostate tumor cell line, 48 h
Description: as §1, §2

HGC27 = assay: CellTiter-Blue cell-based survival/proliferation assay, HGC27; conditions: Homo sapiens, HGC-27; HGC27 stomach tumor cell line, 48 h
Description: as §1, §2

HL60 = assay: CellTiter-Blue cell-based survival/proliferation assay, HL60; conditions: Homo sapiens, HL-60, Leukemia cell line HL60, 48 h, read-out: Anti-tumoral activity (measured IC50) HL60
Description: as §1, §2

PLCPRF5 = assay: CellTiter-Blue cell-based survival/proliferation assay, PLCPRF5; conditions: Homo sapiens, PLC-PRF-5; PLC_PRF5 liver tumor cell line, 48 h
Description: as §1, §2

MESSA = assay: CellTiter-Blue cell-based survival/proliferation assay, MESSA; conditions: Homo sapiens, MES-SA; MESSA ovary tumor cell line, 48 h
Description: as §1, §2

MDAMB231 = assay: CellTiter-Blue cell-based survival/proliferation assay, MDAMB231; conditions: Homo sapiens, MDA-MB-231; MDAMB231 breast tumor cell line, 48 h
Description: as §1, §2

IC50 [1] | Compound | IC50 (HEP2) | IC50 (CALU6) | IC50 (PANC1) | IC50 (BT20) | IC50 (OPM2) | IC50 (H1299) | IC50 (ACHN) | IC50 (AGS) | IC50 (HCT116) | IC50 (A549) | IC50 (SW579) | IC50 (HEPG2) | IC50 (BXPC3) | IC50 (DLD1) | IC50 (A498) | IC50 (TOV112D) | IC50 (DU145) | IC50 (CLS354) | IC50 (PC3) | also measured
≤ 0.1 µM | CCOCc1cc(Nc2ncc(-c3ccc(N4CCNC4=O)cc3)o2)cc(OCCOC)c1 [Example 056, 1-(4-(2-((3-(ethoxymethyl)-5-(2-methoxyethoxy)phenyl)amino)oxazol-5-yl)phenyl)imidazolidin-2-one] | ≤ 0.1 µM | > 1 µM | > 1 µM | > 1 µM | ≤ 0.1 µM | > 1 µM | 0.1 to 0.5 µM | > 1 µM | > 1 µM | > 1 µM | ≤ 0.1 µM | > 1 µM | > 1 µM | > 1 µM | > 1 µM | ≤ 0.1 µM | > 1 µM | ≤ 0.1 µM | ≤ 0.1 µM | IC50 (HGC27): > 1 µM; IC50 (HL60): ≤ 0.1 µM; IC50 (PLCPRF5): > 1 µM; IC50 (MESSA): > 1 µM; IC50 (MDAMB231): > 1 µM
> 1 µM | CCOCc1ccc(C)c(Nc2ncc(-c3ccc(-c4cn[nH]c4)cc3)o2)c1 [Example 060, 5-(4-(1H-pyrazol-4-yl)phenyl)-N-(5-(ethoxymethyl)-2-methylphenyl)oxazol-2-amine] | > 1 µM | > 1 µM | > 1 µM | > 1 µM | 0.5 to 1 µM | > 1 µM | > 1 µM | > 1 µM | > 1 µM | > 1 µM | > 1 µM | > 1 µM | > 1 µM | > 1 µM | > 1 µM | > 1 µM | > 1 µM | > 1 µM | > 1 µM | IC50 (HGC27): > 1 µM; IC50 (HL60): 0.5 to 1 µM; IC50 (PLCPRF5): > 1 µM; IC50 (MESSA): > 1 µM; IC50 (MDAMB231): > 1 µM
0.1 to 0.5 µM | CCOCc1ccc(C)c(Nc2ncc(-c3ccc(-n4nc[nH]c4=O)cc3)o2)c1 [Example 043, 2-{4-[2-(5-Ethoxymethyl-(2-methyl-phenylamino))-oxazol-5-yl]-phenyl}-2,4-dihydro-[1,2,4]triazol-3-one] | > 1 µM | > 1 µM | > 1 µM | > 1 µM | 0.5 to 1 µM | > 1 µM | > 1 µM | > 1 µM | > 1 µM | > 1 µM | > 1 µM | > 1 µM | > 1 µM | > 1 µM | > 1 µM | 0.1 to 0.5 µM | > 1 µM | > 1 µM | > 1 µM | IC50 (HGC27): > 1 µM; IC50 (HL60): 0.5 to 1 µM; IC50 (PLCPRF5): > 1 µM; IC50 (MESSA): > 1 µM; IC50 (MDAMB231): > 1 µM
0.1 to 0.5 µM | CCOCc1ccc(C)c(Nc2ncc(-c3ccc(N4C(=O)NC[C@H]4C)cc3)o2)c1 [Example 051, (R)-1-(4-(2-((5-(ethoxymethyl)-2-methylphenyl)amino)oxazol-5-yl)phenyl)-5-methylimidazolidin-2-one] | 0.1 to 0.5 µM | > 1 µM | > 1 µM | > 1 µM | ≤ 0.1 µM | > 1 µM | > 1 µM | > 1 µM | > 1 µM | > 1 µM | > 1 µM | > 1 µM | > 1 µM | > 1 µM | > 1 µM | ≤ 0.1 µM | > 1 µM | ≤ 0.1 µM | ≤ 0.1 µM | IC50 (HGC27): > 1 µM; IC50 (HL60): ≤ 0.1 µM; IC50 (PLCPRF5): > 1 µM; IC50 (MESSA): > 1 µM; IC50 (MDAMB231): > 1 µM
